What was measured:
[1] = test system: Planaria (Dugesia japonica); assay: Planaria tissue regeneration after surgical injury (head resection), tissue regeneration index; assay type: in vivo; details: surgically injured planaria vs vehicle
Method: (§1) Planaria regeneration: Planaria (Dugesia japonica; Dj) were kept in water (Poland Spring) at 18° C. All animals were starved for at least 7 days prior to experiments. Tissue regeneration was assessed as in (12). Briefly, planaria were subject to head resection post-occularly (surgical Injury). The posterior portions of the planaria were then placed in spring water containing 0.01% EtOH, SPE-C isolate fraction 2 from resolving exudates or milk at the indicated dilutions, U0126 (Extracellular signal-regulated kinases (ERK) inhibitor; Cell Signaling Technology; 25 μM (16)), U0126 plus resolving exudates SPE-C isolates fraction 2, SCI (100 nM), SCII (100 nM), lipoxygenase inhibitor (baicalein, 10 μM) or lipoxygenase inhibitor plus SCI and SCII (100 nM). The extent of tissue regeneration during a 6-day period for D. japonica was determined using captured images of the regenerating blastemas at regular intervals (24 h). These images were analyzed using ImageJ software. A tissue regeneration index (TRI) was employed that took into consideration the size of the regenerated tissue total area (A) and the post-ocular width W of the animal, where TRI=A/W. In determined experiments, planaria were injured and incubated in water, containing 10^8CFU E. coli (serotype O6:K2:H1) or with E. coli plus SCI and SCII (100 nM), and tissue regeneration indices assessed as described above.
Planaria regeneration: Planaria (Dugesia japonica) were kept in water (Poland. Spring; Nestlé Waters North America, Stamford, Conn., USA) at 18° C. All animals were starved for at least 7 d before the experiments. Tissue regeneration was assessed as described previously (10). In brief, planaria were subjected to head resection postoccularly (surgical injury). The posterior portions of the planaria were then placed in spring water containing 0.01% EtOH, 16-glutathionyl, 17-hydroxyl-4Z,7Z,10,12,14,19Z-docosahexaenoic acid plus 16-cysteinylglycinyl, 7-hydroxyl-4Z,7Z,10,12,14,19Z-docosahexaenoic acid (50 nM; each) or 8-gutathionyl, 7,17-dihydroxyl-4Z9,11,13Z,15E,19Z-docosahexaenoic acid plus 8-cysteinylglycinyl, 7,17-dihydroxyl-4Z,9,11,13Z,15E,19Z-docosahexaenoic acid (50 nM, each). The extent of tissue regeneration during a 6-d period was determined using captured images of the regenerating blastemas at regular intervals (24 h). These images were analyzed using ImageJ software (NIH, Bethesda, Md., USA). A tissue regeneration index (TRI) was used that took into consideration the size of the regenerated tissue total area (A) and the postocular width (W), where TRI=A/W (10).

[2] = test system: Mice (zymosan peritonitis); assay: Zymosan peritonitis in mice: leukocyte counts and exudate eicosanoids; assay type: in vivo, mouse; details: i.p. prior to 1 mg zymosan; 4 h; MaR1 10 ng
Method: In determined experiments, mice were administered SC isolates from regenerating planaria i.p., obtained as described in the lipid mediator metabololipidomics and isolation of bioactive fractions section below, immediately prior to zymosan administration (i.p. 1 mg/mouse). After 4 h, peritoneal exudates were obtained, leukocytes enumerated as detailed above and eicosanoid levels assessed by lipid mediator metabololipidomics as described below.

LOX = assay: SC levels in regenerating planaria with lipoxygenase inhibitor (LC-MS-MS); assay type: in vivo, Dugesia japonica; details: measured 3 days post-surgery
Method: as §1, with “The posterior portions of the planaria were then placed in spring water containing 0.01% EtOH, SPE-C isolate fraction 2 from resolving exudates or milk at the indicated dilutions, U0126 (Extracellular signal-regulated kinases (ERK) inhibitor; Cell Signaling Technology; 25 μM (16)), U0126 plus resolving exudates SPE-C isolates fraction 2, SCI (100 nM), SCII (100 nM), lipoxygenase inhibitor (baicalein, 10 μM) or lipoxygenase inhibitor plus SCI and SCII (100 nM).” left out
Lipid mediator metabololipidomics and isolation of bioactive fractions: Peritoneal exudates and exudate cell incubations were immediately placed in 2 volumes of methanol. For lipid mediator profiling, 500 pg each of deuterium-labeled internal standards: d8-5S-HETE, d4-LTB4, d5-LXA4, d4-PGE2, and d5-LTC4 were added to facilitate quantification in each respective chromatographic region and sample recovery. […]

SMILES	tissue regeneration / head regrowth (in words) [1]	exudate eicosanoid levels including LTB4 and thromboxane (Tx) B2 [2]	neutrophil recruitment in murine peritonitis [2]	levels of both SCI and SCII (LOX)
CC/C=C\C/C=C\C[C@H](O)\C=C/C=C/C=C/[C@H](O)C/C=C\CCC(=O)O [MaR1, 7R,14S-dihydroxy-docosa-4Z,8E,10E,12Z,16Z,19Z-hexaenoic acid]	accelerated this process to essentially the same extent	shared	shared	–
O=c1cc(-c2ccccc2)oc2cc(O)c(O)c(O)c12 [baicalein, reference compound]	significantly delayed head regrowth	–	–	reduced

Reference: patent publication US11135228B2, “Cysteinyl-proresolving mediators that promote resolution of infection and organ protection” (THE BRIGHAM AND WOMEN'S HOSPITAL, priority 2014, dated 2021)
